# In patent US20220062296A1, “COMBINATIONS OF GABAA ALPHA 5 AGONISTS AND SV2A INHIBITORS AND METHODS OF USING IN THE TREATMENT OF COGNITIVE IMPAIRMENT” (AGENEBIO, INC., priority 2020, published 2022):
# How the values were obtained:
# [1] = tested on: entorhinal cortex of aMCI subjects; experiment: fMRI activity in entorhinal cortex (EC) during explicit 3-alternative forced choice task; format: in vivo, human; conditions: levetiracetam 125 mg twice a day for two weeks
# Experimental: A within-subjects trial of 8 weeks duration, involving 17 amnestic MCI (aMCI) subjects and 17 age-matched controls with a low dose treatment of levetiracetam is conducted. During the course of the study, each aMCI subject receives both drug and placebo treatments separately in two periods of two weeks each, with the order of treatments among different aMCI subjects counterbalanced (see FIG. 4). Age-matched control subjects treated with placebo serve as a further control. Cognitive testing and fMRI imaging data are obtained from the subjects after each two-week period of drug/placebo treatment. Imaging data are obtained through high-resolution methods developed in the Stark laboratory. Data are collected on a Phillips 3 Tesla scanner (Eindhoven, The Netherlands) equipped with an 8-channel SENSE (Sensitivity Encoding) head coil, located at the F.M. Kirby Research Center for Functional Brain Imaging at the Kennedy Krieger Institute (Baltimore, Md.). […] Group data are analyzed using a two-way Analysis of Variance (ANOVA) with trial types and group as fixed factors, and subject as a random factor nested within group. […] The activity of the subject's medial temporal lobe is measured by functional MRI during the subject's participation in an explicit 3-alternative forced choice task, where participants view novel, repeated and similar (“lure”) stimuli. […]
# [2] = Levetiracetam blood plasma levels in aMCI patients; format: in vivo; conditions: human, oral, based on aMCI patients, read-out: effective plasma level range (preferred range goal)
# Text: Visit 1: At the end of the first drug/placebo period 2 weeks after the Baseline Visit, the medical, neurological and psychiatric evaluations and cognitive testing are repeated. The subject is also clinically evaluated for suicidal ideation. Blood is drawn again to repeat the standard tests and to determine whether there are any changes related to drug treatment; the subject's blood levetiracetam level is also obtained. All medication dispensed at the Baseline Visit (drug or placebo) is collected and subject compliance with the medication regimen is assessed. The first fMRI session (with cognitive tests) is conducted on the same day, either immediately before or immediately after the clinical assessment. Subjects discontinue first period treatment at this visit.
# Visit 2: At approximately 2 weeks after the Washout Visit (i.e., 2 weeks after starting the second treatment period), the medical, neurological and psychiatric evaluations and the cognitive testing are repeated. The subject is clinically evaluated for suicidal ideation. […] All medication dispensed at the Washout Visit is collected and subject compliance with the medication regimen is assessed. […]
# Human: in the human studies described in Examples 2 and 3, a subject's levetiracetam blood plasma level was assessed at each visit. […]
# DG/CA3 of aMCI subjects = experiment: fMRI activity in DG/CA3 during explicit 3-alternative forced choice task; format: in vivo, human; conditions: for DG/CA3 hyperactivity: two weeks
# [3] = cited from earlier work
structure (smiles),measurement,setting,value
"CC[C@@H](C(N)=O)N1CCCC1=O [levetiracetam, (2S)-2-(2-oxopyrrolidin-1-yl)butanamide]",EC activity during memory judgments,[1],increases EC activity
same,concentration at 2 weeks,[2],2900 to 4400 ng/mL
same,DG/CA3 hyperactivity,DG/CA3 of aMCI subjects; levetiracetam 62.5 mg BID cohort,does not significantly reduce
same,DG/CA3 activity during lure stimuli correctly identified as similar,"DG/CA3 of aMCI subjects; levetiracetam 125 mg twice a day for two weeks, vs placebo, p=0.037",reduces DG/CA3 hyper-activity
same,DG/CA3 hyperactivity,DG/CA3 of aMCI subjects; levetiracetam 250 mg BID cohort,does not significantly reduce
same,plasma half-life in elderly,"[3]; expected, due to decreased renal function",9 to 10 h
same,time to steady state,[3]; multiple twice-daily dosing,2 days
same,plasma half-life,[3]; oral administration,approximately 7±1 hour
same,absorption after oral administration,[3]; oral,rapidly and almost completely absorbed
same,effect of food on bioavailability,[3]; oral,not affected by food
same,time of peak plasma concentrations following oral administration,[3]; oral,about 1 hour
